From paper PMC9979163, “Discovery and functional characterization of N-(thiazol-2-yl)-benzamide analogs as the first class of selective antagonists of the Zinc-Activated Channel (ZAC)” (Biochemical pharmacology, 2021)

What was measured:
ZAC [1] = target: T1, ZAC (Homo sapiens, UniProt Q401N2); assay: TEVC recordings, Zn2+-evoked currents at ZAC expressed in Xenopus oocytes; type: cell-based; details: for Antagonist activity at ZAC in SAR study (in words): tested at three concentrations (0.3-3-30 μM or 1-10-100 μM); for IC50: steady-state current, read-out: pIC50 ± S.E.M. (converted)
T1 sequence (Q401N2 26-412): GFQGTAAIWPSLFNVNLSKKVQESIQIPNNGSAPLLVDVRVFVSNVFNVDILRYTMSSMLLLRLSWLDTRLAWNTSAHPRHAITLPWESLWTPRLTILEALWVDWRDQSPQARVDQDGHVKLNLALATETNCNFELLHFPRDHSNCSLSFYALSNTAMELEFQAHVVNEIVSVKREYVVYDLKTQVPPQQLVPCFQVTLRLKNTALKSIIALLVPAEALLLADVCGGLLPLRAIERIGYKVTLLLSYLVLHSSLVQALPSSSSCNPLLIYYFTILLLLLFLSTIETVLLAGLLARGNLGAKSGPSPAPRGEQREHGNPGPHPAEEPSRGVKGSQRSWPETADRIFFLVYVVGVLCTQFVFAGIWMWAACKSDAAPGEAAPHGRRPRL
Procedure: (§1) The cDNAs for the various WT and chimeric CLR subunits were linearized and subsequently transcribed and capped mMessage mMachine T7 RNA transcription kit (Ambion, Waltham, MA). Different amounts of cRNA mixtures were injected for ZAC (9.2–36.8 nL in a concentration of 0.05 μg/μL), […] nAChR (9.2–36.8 nL in a concentration of 0.1 μg/μL of each subunit in a ratio of 1:1), hα1 GlyR (9.2–36.8 nL in a concentration of 0.05 μg/μL), hα1β2γ2s GABAAR (9.2–36.8 nL in a concentration of 0.05 μg/μL of each subunit in a ratio of 1:1:3), m5-HT3AR (9.2–36.8 nL in a concentration of 0.05 μg/μL), m5-HT3A/ZAC (9.2–36.8 nL in a concentration of 0.207 μg/μL), and ZAC/hai-Gly (9.2–36.8 nL in a concentration of 0.206 μg/μL). Oocytes were incubated in a sterile modified Barth’s solution [88 mM NaCl, 1 mM KCl, 15 mM HEPES (pH 7.5), 2.4 mM NaHCO3, 0.41 mM CaCl2, 0.82 mM MgSO4, 0.3 mM Ca(NO3)2, 100 U/ml penicillin and 100 μg/ml strep-tomycin] at 18 °C for 2 days after injection.
(§2) On the day of experiment, all compound dilutions were prepared in a saline solution [115 mM NaCl, 2.5 mM KCl, 10 mM MOPS (pH 7.5), 1.8 mM CaCl2, 0.1 mM MgCl2] and pH adjusted to 7.5 (if needed). Oocytes were placed in a recording chamber continuously perfused with this saline solution, and the compounds were applied in the perfusate. Both voltage and current electrodes were agar-plugged with 3 M KCl with a resistance of 0.2–2.0 MΩ. Oocytes were voltage-clamped at −50 mV (unless otherwise stated) by a Gene Clamp 500B amplifier (Axon Instruments, Union City, CA), while current signals were digitized by a Digidata 1320. Currents were recorded using pCLAMP 10 (Molecular Devices, Sunnyvale, CA). The recordings were performed at room temperature.
In all recordings, the compounds or compound combinations were applied in the bath until the peak current decayed to a steady state (up to 30 sec at the most). […] The functional properties of the modulators at the CLRs were determined by pre-application of the modulator to the perfusate 30 sec and followed by co-application of the modulator and the agonist to the perfusate. In all recordings, washes of 1–5 min were executed between the applications to prevent receptor desensitization, the duration of these washes depending on the kinetics of the respective receptors and the “stickyness” of the respective compounds. […] For the selectivity and mode-of-action studies, the agonist concentrations used for different CLRs or chimeric CLRs were in the EC20–EC40 range (verified on the day of experiment), as this enabled us to investigate both for putative positive and negative receptor modulation exerted by TTFB (hα3β4 nAChR, 3 μM (S)-nicotine; m5-HT3AR, 2 μM 5-HT; hα1 GlyR, 100 μM glycine; hα1β2γ2S GABAAR, 30 μM GABA; m5-HT3A/ZAC, 0.3 μM 5-HT; ZAC/hɑ1-Gly, 2 μM Zn^2+).
Data analysis of the results from the TEVC recordings were performed using Clampfit software version 10.5 (Molecular Devices, Crawley, UK) and GraphPad Prism version 7.0c (GraphPad Software, Inc. La Jolla, CA). Data for the test compounds were normalized to either the maximal agonist-evoked current or to an EC20–EC50-mediated response elicited by the agonist on each oocyte (specified in each case). Unless otherwise stated, data for agonist-induced responses in the presence of the antagonists were extracted from the plateau (or steady-state) of the agonist-evoked current. Concentration-response and concentration-inhibition curves were fitted in GraphPad Prism by nonlinear regression using the equation for sigmoidal dose-response with variable slope. I-V relationships were analyzed by fitting the curves with a third order polynomial model. Each data point represents the mean ± S.E.M. value of recordings performed on at least five oocytes from at least two different batches.

ZAC [2] = target: T1, ZAC; assay: TEVC recordings, spontaneous ZAC activity in Xenopus oocytes; type: cell-based; details: for IC50: block of spontaneous ZAC activity (leak current), TEVC
Procedure: as §1, §2
In all recordings, the compounds or compound combinations were applied in the bath until the peak current decayed to a steady state (up to 30 sec at the most). […] The functional properties of the modulators at the CLRs were determined by pre-application of the modulator to the perfusate 30 sec and followed by co-application of the modulator and the agonist to the perfusate. In all recordings, washes of 1–5 min were executed between the applications to prevent receptor desensitization, the duration of these washes depending on the kinetics of the respective receptors and the “stickyness” of the respective compounds. […]
(§3) Data analysis of the results from the TEVC recordings were performed using Clampfit software version 10.5 (Molecular Devices, Crawley, UK) and GraphPad Prism version 7.0c (GraphPad Software, Inc. La Jolla, CA). […] I-V relationships were analyzed by fitting the curves with a third order polynomial model. […]

ZAC [3] = target: T1, ZAC; assay: TEVC recordings, H+-evoked currents at ZAC expressed in Xenopus oocytes; type: cell-based
Procedure: (§4) The cDNAs for the various WT and chimeric CLR subunits were linearized and subsequently transcribed and capped mMessage mMachine T7 RNA transcription kit (Ambion, Waltham, MA). […]
(§5) On the day of experiment, all compound dilutions were prepared in a saline solution [115 mM NaCl, 2.5 mM KCl, 10 mM MOPS (pH 7.5), 1.8 mM CaCl2, 0.1 mM MgCl2] and pH adjusted to 7.5 (if needed). […] Currents were recorded using pCLAMP 10 (Molecular Devices, Sunnyvale, CA). […]
(§6) In all recordings, the compounds or compound combinations were applied in the bath until the peak current decayed to a steady state (up to 30 sec at the most). […] The functional properties of the modulators at the CLRs were determined by pre-application of the modulator to the perfusate 30 sec and followed by co-application of the modulator and the agonist to the perfusate. […]
as §3

hα3β4 nAChR = hα3β4 nAChR (Homo sapiens, UniProt P30926+P32297); assay: TEVC selectivity, hα3β4 nAChR in oocytes; type: cell-based; details: 30 μM, 30 s preapplication, 3 μM (S)-nicotine (EC20–EC40)
hα3β4 nAChR, sequence (P32297 32-505): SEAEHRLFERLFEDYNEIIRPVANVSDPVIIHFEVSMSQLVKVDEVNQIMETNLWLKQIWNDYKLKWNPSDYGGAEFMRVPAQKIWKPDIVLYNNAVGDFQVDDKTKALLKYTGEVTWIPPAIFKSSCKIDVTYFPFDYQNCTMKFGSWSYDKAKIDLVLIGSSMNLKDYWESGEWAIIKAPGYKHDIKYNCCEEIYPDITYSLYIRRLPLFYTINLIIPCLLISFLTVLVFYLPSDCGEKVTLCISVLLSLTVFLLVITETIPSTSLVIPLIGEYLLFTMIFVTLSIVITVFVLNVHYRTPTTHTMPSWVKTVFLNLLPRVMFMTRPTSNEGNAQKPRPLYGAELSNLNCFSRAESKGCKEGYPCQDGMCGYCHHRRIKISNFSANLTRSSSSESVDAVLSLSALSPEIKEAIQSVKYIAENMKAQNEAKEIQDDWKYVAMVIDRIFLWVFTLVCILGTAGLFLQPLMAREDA
hα3β4 nAChR, sequence (P30926 22-498): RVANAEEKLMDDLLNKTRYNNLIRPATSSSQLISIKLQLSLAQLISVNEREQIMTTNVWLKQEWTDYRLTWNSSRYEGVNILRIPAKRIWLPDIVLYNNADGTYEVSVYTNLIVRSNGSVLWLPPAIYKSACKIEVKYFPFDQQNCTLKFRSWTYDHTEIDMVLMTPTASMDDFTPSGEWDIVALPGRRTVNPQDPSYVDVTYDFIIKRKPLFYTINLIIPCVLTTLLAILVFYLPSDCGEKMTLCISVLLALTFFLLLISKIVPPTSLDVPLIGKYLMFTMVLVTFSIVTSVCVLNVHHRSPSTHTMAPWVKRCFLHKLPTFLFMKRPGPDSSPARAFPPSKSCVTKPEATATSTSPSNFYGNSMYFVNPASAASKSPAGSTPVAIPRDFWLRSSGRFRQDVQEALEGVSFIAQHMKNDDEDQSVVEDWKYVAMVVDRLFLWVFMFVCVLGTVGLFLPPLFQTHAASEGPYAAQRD
Procedure: as §4, §5, §6, §3

ZAC/hα1-Gly = assay: TEVC, chimeric ZAC/hα1-Gly receptor in oocytes; type: cell-based, human; details: 30 μM, EC20–EC40 Zn2+
Procedure: as §4, §5, §6, §3

| Antagonist activity at ZAC in SAR study (in words) (ZAC [1]; 1 mM Zn2+ as agonist) | Hill coefficient nH ± S.E.M. (ZAC [1]; Zn2+ (1 mM) as agonist, TEVC) | IC50 (ZAC [1]; Zn2+ (1 mM) as agonist, TEVC) | Mode of antagonism (ZAC [1]; Zn2+ concentration-response curves in absence and presence of various concentrations of the compound) | IC50 (ZAC [2]; read-out: IC50) | Inhibition of ZAC at 10 μM (in words) (ZAC [1]; 10 μM compound, 1 mM Zn2+ as agonist) | Fitted inhibition range, Inhibition (%) (ZAC [1]; Zn2+ (1 mM) as agonist, TEVC) | Extent of inhibition of Zn2+-induced responses (in words) (ZAC [1]; Zn2+ (1 mM), full concentration-inhibition curves) | Equilibrium potential (ZAC [2]; TTFB (100 μM)-induced currents, holding potentials −60 mV to +60 mV) | IC50 (ZAC [2]; read-out: pIC50 ± S.E.M. (converted)) | Voltage dependence of ZAC inhibition (ZAC [3]; 10 μM, H+ (pH 6.5)-evoked currents, −60 mV and +60 mV) | IC50 (ZAC [3]; H+ (pH 6.0) as agonist, TEVC, steady-state current, n = 6) | Agonist, antagonist or PAM activity (hα3β4 nAChR) | Modulation of Zn2+-induced response (ZAC/hα1-Gly) | Compound |
| --- | --- | --- | --- | --- | --- | --- | --- | --- | --- | --- | --- | --- | --- | --- |
| weaker antagonists | −1.3 ± 0.13 | 4.07 µM | largely non-competitive | 7.4 µM | – | – | – | – | – | – | – | – | – | COC(=O)c1sc(NC(=O)c2cc(Br)ccc2Cl)nc1C [compound 1, 2-(5-bromo-2-chlorobenzamido)-4-methylthiazole-5-methyl ester] |
| roughly equipotent with 2b | −1.5 ± 0.08 | 3.02 µM | – | 4.7 µM | almost complete inhibition | 91 ± 3% | completely | −11.5 mV | 4.79 µM | voltage-independent | 8.5 µM | did not display significant activity | negligible effect | CC(C)(C)c1csc(NC(=O)c2cccc(F)c2)n1 [5a, N-(4-(tert-butyl)thiazol-2-yl)-3-fluorobenzamide] |
